pKi: −log10 of the molar value.
assay: Inhibition of HTLV-1 protease using (RE(Edans)TKVLVVQPK(Dabsyl)R) as substrate by fluorescence assay; set-up: species or system Human T-cell leukemia virus type I

Compound	pKi
O=[N+]([O-])c1ccc(S(=O)(=O)N(Cc2ccccc2)[C@H]2CNC[C@@H]2N(Cc2ccccc2)S(=O)(=O)c2ccc([N+](=O)[O-])cc2)cc1	5.10
Cc1ccccc1S(=O)(=O)N(Cc1ccccc1)[C@H]1CNC[C@@H]1N(Cc1ccccc1)S(=O)(=O)c1ccccc1C	5.59
O=S(=O)(c1ccccc1Cl)N(Cc1ccccc1)[C@H]1CNC[C@@H]1N(Cc1ccccc1)S(=O)(=O)c1ccccc1Cl	5.62
C=CCN([C@H]1CNC[C@@H]1N(CC=C)S(=O)(=O)c1ccccc1)S(=O)(=O)c1ccccc1	3.76
C=C(C)CN([C@H]1CNC[C@@H]1N(CC(=C)C)S(=O)(=O)c1ccccc1)S(=O)(=O)c1ccccc1	4.75
Nc1ccc(S(=O)(=O)N(Cc2ccccc2)[C@H]2CNC[C@@H]2N(Cc2ccccc2)S(=O)(=O)c2ccc(N)cc2)cc1	7.82
O=S(=O)(c1ccccc1)N(Cc1ccc(I)cc1)[C@H]1CNC[C@@H]1N(Cc1ccc(I)cc1)S(=O)(=O)c1ccccc1	< 3.70
CC(C)=CCN([C@H]1CNC[C@@H]1N(CC=C(C)C)S(=O)(=O)c1ccccc1)S(=O)(=O)c1ccccc1	4.94
O=S(=O)(c1ccccc1)N(Cc1ccccc1)[C@H]1CNC[C@@H]1N(Cc1ccccc1)S(=O)(=O)c1ccccc1	5.70
O=S(=O)(c1ccccc1)N(Cc1ccc(C(F)(F)F)cc1)[C@H]1CNC[C@@H]1N(Cc1ccc(C(F)(F)F)cc1)S(=O)(=O)c1ccccc1	< 3.60

— ChEMBL document CHEMBL3576846, “Privileged Structures Meet Human T-Cell Leukemia Virus-1 (HTLV-1): C2-Symmetric 3,4-Disubstituted Pyrrolidines as Nonpeptidic HTLV-1 Protease Inhibitors” (J Med Chem, 2015)
